# Entries after “also recorded” stand apart in the source; their conditions may differ.
# Test system: children with autism
# Assay: 12-week double-blind randomized placebo-controlled study of NAC: Aberrant Behavior Checklist (ABC)
# Type: in vivo, human
# Excerpt: The Aberrant Behavior Checklist (ABC) is a standardized scale comprising 58 items for assessing problem behavior in subjects with mental retardation and developmental disabilities (Aman, M. et al., Am J Ment Defic. 89:492-502 (1985)). The checklist is empirically derived from ratings on approximately 1000 subjects, and the items resolve into five subscales: irritability, lethargy/social withdrawal, stereotypic behavior, hyperactivity, and inappropriate speech. High scores indicate more severe behavioral symptoms.
# A 12-week, double-blind randomized, placebo-controlled study of NAC in children with autism was conducted in the Autism & Developmental Disabilities Clinic in the Division of Child & Adolescent Psychiatry at Stanford University Medical Center. The recruitment period started in March 2009 and ended in September 2010. Subjects with and without mental retardation were included. After obtaining informed consent, subjects were screened and inclusion and exclusion criteria were assessed. No changes in eligibility criteria were applied throughout the study. This investigation was approved by the institutional review board at Stanford University School of Medicine. An investigational new drug application (IND#100905) was filed with the Food and Drug Administration, and the study was registered in National Institutes of Health at ClinicalTrials.gov (identifier number NCT00627705).
# After the screening phase, baseline measures were obtained from subjects continuing to meet inclusion and exclusion criteria. Subjects were then randomized to either placebo or active based on age and gender. As NAC is a nutritional supplement, the quality control is predictably variable and therefore purity is not as stringent as prescription medications. Therefore, in the present study, the stability of the compound was ascertained and the integrity of the active agent was protected by packaging each NAC doses in individual pockets. The active compound and matching placebo were provided by BioAdvantex Pharma, Inc. (Mississauga, Ontario, Canada). […] Subjects randomized to the active drug were initiated at the dose of 900 mg every day for the first 4 weeks, then 900 mg twice daily for 4 weeks and 900 mg three times daily for 4 weeks. (This dose selection was based on previously published studies for other psychiatric conditions (Grant, J. et al., Arch Gen Psychiatry, 66:468-475 (2009); Berk, M. et al., Biol Psychiatry, 64:361-368 (2008); Berk, M. et al., Bio Psychiatry, 64:468-475 (2008)) and the previous experience of our group in studies of children with cystic fibrosis). Alternatively, subjects were initiated at the dose of 900 mg per day, 1,800 mg per day, or 2,700 mg per day of NAC. Alternatively, the subjects were initiated at the dose ranging from 900 mg per day to 2,700 mg per day of NAC.
# If a subject could not tolerate a specific dose, s/he would be maintained at the highest tolerated dose. Subjects were evaluated at baseline, week 4, week 8 and week 12. The Aberrant Behavioral Checklist (ABC) (Aman, M. et al., Am J Ment Defic. 89:492-502 (1985)), the Clinical Global Impressions (CGI) (Guy, W., ECDEU Assessment Manual for Psychopharmacology, Rockville, Md., U.S. Department of Health, Education, and Welfare (1976)), and the Dosage Record and Treatment Emergent Symptom Scale (DOTES) (Guy, W., 1976, ECDEU Assessment Manual for Psychopharmacology, Rockville, Md., U.S. Department of Health, Education, and Welfare) were obtained in each visit. Additional secondary measures were obtained at baseline and at week 12 and included the social responsiveness scale (SRS) (Constantino, J. et al., J. Dev Behav Pediatr., 21:2-11 (2000); Constantino, J. et al., J Autism Dev Disord., 33:427-433 (2003)), and the repetitive behavior scale-revised (RBS-R) (Bodfish, J. et al., The Repetitive Behavior Scale: A test manual (1998)). […]
# [1] = Baseline (before treatment), NAC group n = 15
# [2] = all randomized participants, p>0.100
# [3] = standardized mean difference NAC vs placebo at Week 12
smiles,measurement,setting,value
"CC(=O)N[C@@H](CS)C(=O)O [NAC, N-acetylcysteine]","ABC hyperactivity, Mean (SD)",[1],23.4 (9.0)
same,"ABC inappropriate speech, Mean (SD)",[1],4.9 (3.2)
same,"ABC irritability, Mean (SD)",[1],16.9 (7.9)
same,"ABC lethargy, Mean (SD)",[1],15.2 (9.5)
same,"ABC stereotypy, Mean (SD)",[1],9.1 (5.5)
same,"ABC total, Mean (SD)",[1],69.7 (24.7)
same,"ABC hyperactivity, Mean (SD)","Week 12, NAC n = 14",12.4 (11.4)
same,"ABC inappropriate speech, Mean (SD)","Week 12, NAC n = 14",2.5 (2.6)
same,"ABC irritability, Mean (SD)","Week 12, NAC n = 14",7.2 (5.7)
same,"ABC lethargy, Mean (SD)","Week 12, NAC n = 14",11.0 (9.4)
same,"ABC stereotypy, Mean (SD)","Week 12, NAC n = 14",5.6 (5.7)
same,"ABC total, Mean (SD)","Week 12, NAC n = 14, 900 mg daily 4 wk, twice daily 4 wk, three times daily 4 wk, high scores = more severe",38.7 (24.1)
same,"ABC-Irritability, treatment effect (Group x Time)","all randomized participants, NAC vs placebo, effects beginning in week 4, continuing through week 8 and 12, p<0.001",significantly improved irritability; also recorded: significant behavioral improvements
same,"ABC-Total, treatment effect (Group x Time)","all randomized participants, NAC vs placebo, from week 4 through week 12, p=0.010",significant effects; also recorded: significant behavioral improvements
same,"ABC-Stereotypy, treatment effect","all randomized participants, NAC vs placebo, p=0.096",marginally significant improvement
same,"ABC hyperactivity subscale, treatment effect",[2],no significant treatment effects
same,"ABC inappropriate speech subscale, treatment effect",[2],no significant treatment effects
same,"ABC lethargy subscale, treatment effect",[2],no significant treatment effects
same,"ABC inappropriate speech, Cohen's d",[3],.35
same,"ABC irritability, Cohen's d",[3],.72
same,"ABC lethargy, Cohen's d",[3],−.32
same,"ABC stereotypy, Cohen's d",[3],.37
same,"ABC total, Cohen's d",[3],.63

# Source: patent US20130296430A1, “COMPOSITIONS AND METHODS FOR TREATING AUTISM AND AUTISM SPECTRUM DISORDER” (priority 2012, published 2013)
